Molecular target: T1, human glucocorticoid receptor (Homo sapiens, UniProt P04150)
T1 construct: host or cells: IM9 human lymphoblast cells, cytosol fraction
T1 sequence (P04150 1-777): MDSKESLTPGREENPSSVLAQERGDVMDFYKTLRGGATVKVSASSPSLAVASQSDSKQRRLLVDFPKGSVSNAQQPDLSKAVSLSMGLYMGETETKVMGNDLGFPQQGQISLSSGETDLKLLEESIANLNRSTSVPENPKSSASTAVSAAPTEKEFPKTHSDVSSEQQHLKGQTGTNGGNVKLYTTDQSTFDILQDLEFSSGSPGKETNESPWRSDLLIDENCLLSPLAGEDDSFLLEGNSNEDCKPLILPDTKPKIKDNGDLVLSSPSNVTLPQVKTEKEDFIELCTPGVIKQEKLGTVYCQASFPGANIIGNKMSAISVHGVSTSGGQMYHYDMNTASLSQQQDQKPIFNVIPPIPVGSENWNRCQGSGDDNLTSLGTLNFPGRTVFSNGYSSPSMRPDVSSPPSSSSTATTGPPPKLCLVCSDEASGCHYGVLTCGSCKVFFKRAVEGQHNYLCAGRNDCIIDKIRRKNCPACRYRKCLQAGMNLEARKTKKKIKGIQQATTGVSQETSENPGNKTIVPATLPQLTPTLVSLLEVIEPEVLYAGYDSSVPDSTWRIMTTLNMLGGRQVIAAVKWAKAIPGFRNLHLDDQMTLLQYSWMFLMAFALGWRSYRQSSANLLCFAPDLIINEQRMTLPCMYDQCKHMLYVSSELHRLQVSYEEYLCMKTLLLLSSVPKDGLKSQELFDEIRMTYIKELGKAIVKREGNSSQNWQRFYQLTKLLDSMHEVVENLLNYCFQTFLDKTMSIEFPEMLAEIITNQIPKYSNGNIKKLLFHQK
Assay: Human glucocorticoid receptor (hGR) ligand-binding assay, 3H-dexamethasone, IM9 cytosol
Conditions: read-out: % inhibition hGR at 1 μM
Protocol: Preferably, the glucocortitcoid receptor extracted from cytosol of IM9 cells is used for competitive radioligand binding assays to calculate percentage inhibition of the binding of radiolabeled ligand 3H-dexamethasone at the human glucocorticoid receptor.
The human lymphoblast cell line IM9 (ATCC, Bethesda, Md.) was cultivated in RPMI 1640 media containing 10% fetal bovine serum, penicillin (100 U/ml), streptomycin (100 μg/ml), and 2 mM L-glutamine at […] and 7% CO2 in a humidified incubator. Cells were centrifuged for 10 minutes at 1500 g and were washed in PBS and repelleted. Cell were then resuspended in homogenization buffer consisting of: 10 mM TES, 10 mM sodium molybdate, 1 mM EDTA, pH 7.4, 20 mM 2-mercaptoethanol, and 10% glycerol. Disruption of the cells was performed by nitrogen cavitation using 2×15 minutes at 600 to 750 psi nitrogen in a N2 cavitator at 0° C. The cell preparation was then centrifuged at 27,000 g for 15 minutes, and the resultant supernatant (=cytosol of IM9 cells) was centrifuged at 103,000 g for 60 minutes at 4° C. The amount of protein in the supernatant fraction was determined using a BCA assay kit and aliquots were snap frozen in a dry ice-acetone bath and stored at −70° C. […] 100 μl of the supernatant) was finally assayed for radioactivity by liquid scintillationspectrometry, and percentage inhibition of 3H-dexamethasone binding was calculated.

inhibition at 1 µM: 28%
SMILES: Cc1cnc(C(=O)N[C@H]2[C@H](c3ccccc3)N(c3ccc4c(cnn4-c4ccc(=O)n(C)c4)c3)C(=O)C2(C)C)s1 [Example 26, N-[(2S,3R)-4,4-Dimethyl-1-[1-(1-methyl-6-oxo-1H-pyridin-3-yl)-1H-indazol-5-yl]-5-oxo-2-phenyl-pyrrolidin-3-yl]-5-methyl-thiazole-2-carboxylic acid amide]
